Measurements as given in US20220220128A1, “HETEROCYCLIC COMPOUNDS AS KINASE INHIBITORS, COMPOSITIONS COMPRISING THE HETEROCYCLIC COMPOUND, AND METHODS OF USE THEREOF” (JS Innopharm (Shanghai) Ltd, priority 2019, published 2022).
Like-named read-outs stand apart in the source and are kept apart here.

Tests used:
TT cells = experiment: TT Cell Proliferation Assay (WST-8, 8 days); type: cell-based; conditions: growth inhibition in TT cells, read-out: TT Cellular Activity
Procedure, shortened: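 TT cells, 6,000/well in RPMI-1640 with 10% FBS, attached 24 h, then exposed to compound at 5 μM down to 0.0005 μM final (0.5% DMSO) for 8 days at 37 °C. WST-8 added for 5 h, absorbance at 450 nm. IC50 calculated from the dilution series.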

human KDR kinase = biological target: T1, human KDR kinase (Homo sapiens, UniProt P35968); experiment: KDR Kinase Assay (LanthaScreen TR-FRET enzymatic assay); type: biochemical; conditions: 1.2 nM KDR, 92 μM ATP
T1 construct: purchased Carna 08-191
Procedure, shortened: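 Recombinant human KDR (1.2 nM) preincubated 15 min at room temperature with compound, then reacted with 3 μM FAM-P22 peptide and 92 μM ATP in 50 mM HEPES pH 7.5 for 1 h at 28° C. EDTA stop, then TR-FRET acceptor/donor ratio read; percent of 1% DMSO control fitted sigmoidally for IC50.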

human RET kinase = biological target: T2, human RET kinase (Homo sapiens, UniProt P07949); experiment: RET Kinase Assay (LanthaScreen TR-FRET enzymatic assay); type: biochemical; conditions: 7 nM RET, 23 μM ATP
T2 construct: purchased Carna 08-159
Procedure, shortened: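 Human RET (7 nM) preincubated 15 min with compound in 50 mM HEPES pH 7.5, 0.0015% Brij-35, then reacted with 3 μM FAM-P2 peptide and 23 μM ATP for 1 h at 28° C.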

T2 sequence (P07949 29-1114): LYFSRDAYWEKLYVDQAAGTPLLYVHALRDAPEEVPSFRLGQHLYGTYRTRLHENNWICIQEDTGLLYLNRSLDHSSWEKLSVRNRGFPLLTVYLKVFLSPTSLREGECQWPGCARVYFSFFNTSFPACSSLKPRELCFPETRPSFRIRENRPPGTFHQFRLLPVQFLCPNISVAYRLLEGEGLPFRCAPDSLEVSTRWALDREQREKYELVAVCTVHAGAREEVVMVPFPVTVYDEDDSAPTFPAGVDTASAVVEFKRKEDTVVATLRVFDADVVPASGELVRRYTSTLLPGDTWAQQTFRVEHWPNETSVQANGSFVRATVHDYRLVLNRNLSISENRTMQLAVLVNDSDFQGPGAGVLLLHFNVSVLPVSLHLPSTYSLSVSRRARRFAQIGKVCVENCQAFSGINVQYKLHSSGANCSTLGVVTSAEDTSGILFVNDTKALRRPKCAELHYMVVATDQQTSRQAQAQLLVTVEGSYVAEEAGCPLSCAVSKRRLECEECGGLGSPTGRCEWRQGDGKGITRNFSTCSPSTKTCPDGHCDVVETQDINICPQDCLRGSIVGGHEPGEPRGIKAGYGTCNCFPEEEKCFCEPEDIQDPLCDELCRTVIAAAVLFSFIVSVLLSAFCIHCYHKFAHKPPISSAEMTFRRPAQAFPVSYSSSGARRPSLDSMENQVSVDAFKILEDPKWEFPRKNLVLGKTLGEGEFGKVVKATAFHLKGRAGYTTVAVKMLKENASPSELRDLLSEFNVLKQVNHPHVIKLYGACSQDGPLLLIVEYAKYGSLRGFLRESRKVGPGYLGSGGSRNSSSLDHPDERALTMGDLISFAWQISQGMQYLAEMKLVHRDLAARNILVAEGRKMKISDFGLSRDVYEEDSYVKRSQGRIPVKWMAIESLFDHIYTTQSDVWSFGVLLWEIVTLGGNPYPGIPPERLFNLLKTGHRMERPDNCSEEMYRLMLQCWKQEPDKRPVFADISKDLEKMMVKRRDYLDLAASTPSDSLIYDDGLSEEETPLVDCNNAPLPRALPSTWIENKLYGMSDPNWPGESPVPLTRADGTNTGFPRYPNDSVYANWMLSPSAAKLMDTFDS
T1 sequence (P35968 20-1356): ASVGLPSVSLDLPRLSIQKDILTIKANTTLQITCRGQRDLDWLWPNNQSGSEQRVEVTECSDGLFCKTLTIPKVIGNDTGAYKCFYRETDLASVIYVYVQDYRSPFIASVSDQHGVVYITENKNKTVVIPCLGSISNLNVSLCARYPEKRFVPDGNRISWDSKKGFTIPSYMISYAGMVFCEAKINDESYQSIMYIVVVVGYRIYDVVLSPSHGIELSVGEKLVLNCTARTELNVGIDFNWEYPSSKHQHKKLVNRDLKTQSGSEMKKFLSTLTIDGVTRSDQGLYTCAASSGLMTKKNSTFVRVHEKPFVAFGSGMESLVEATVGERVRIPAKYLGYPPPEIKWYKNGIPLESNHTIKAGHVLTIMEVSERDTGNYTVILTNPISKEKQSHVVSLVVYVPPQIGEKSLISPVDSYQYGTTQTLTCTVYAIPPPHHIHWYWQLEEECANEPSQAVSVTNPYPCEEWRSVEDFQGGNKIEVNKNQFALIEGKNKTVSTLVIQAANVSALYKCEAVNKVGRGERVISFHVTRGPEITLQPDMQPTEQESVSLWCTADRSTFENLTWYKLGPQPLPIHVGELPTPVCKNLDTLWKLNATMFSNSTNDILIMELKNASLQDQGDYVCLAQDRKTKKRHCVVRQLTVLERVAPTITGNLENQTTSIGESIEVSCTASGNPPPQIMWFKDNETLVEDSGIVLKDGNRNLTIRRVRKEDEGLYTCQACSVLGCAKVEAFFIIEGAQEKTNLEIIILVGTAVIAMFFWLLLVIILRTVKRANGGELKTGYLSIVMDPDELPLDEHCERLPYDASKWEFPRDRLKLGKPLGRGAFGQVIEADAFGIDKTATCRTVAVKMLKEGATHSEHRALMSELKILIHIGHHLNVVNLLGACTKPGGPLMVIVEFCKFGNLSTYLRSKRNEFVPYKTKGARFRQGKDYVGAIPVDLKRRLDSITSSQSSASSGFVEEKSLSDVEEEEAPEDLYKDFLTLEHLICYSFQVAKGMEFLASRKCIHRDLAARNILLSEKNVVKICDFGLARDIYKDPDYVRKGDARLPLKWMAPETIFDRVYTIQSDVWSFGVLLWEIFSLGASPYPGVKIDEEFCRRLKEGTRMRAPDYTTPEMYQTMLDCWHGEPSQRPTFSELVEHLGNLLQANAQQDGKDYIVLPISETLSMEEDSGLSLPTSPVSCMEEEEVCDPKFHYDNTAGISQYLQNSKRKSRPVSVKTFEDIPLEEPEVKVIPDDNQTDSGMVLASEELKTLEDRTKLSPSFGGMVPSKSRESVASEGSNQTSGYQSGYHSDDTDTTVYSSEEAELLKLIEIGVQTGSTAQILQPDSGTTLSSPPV

SMILES | IC50 (TT cells; Homo sapiens, TT, 192 h) [nM] | IC50 (human KDR kinase) [nM] | IC50 (human RET kinase) [nM] | IC50 (TT cells) [nM]
Cn1cc(-c2cc(-c3ccc(N4C[C@@H]5[C@@H](CNC(=O)c6c(F)cccc6Cl)[C@@H]5C4)nc3)c3c(C#N)cnn3c2)cn1 [Example 83, 2-chloro-N-(((1R,5S,6s)-3-(5-(3-cyano-6-(1-methyl-1H-pyrazol-4-yl)pyrazolo[1,5-a]pyridin-4-yl)pyridin-2-yl)-3-azabicyclo[3.1.0]hexan-6-yl)methyl)-6-fluorobenzamide] | ≤ 10 | 10 to 50 | ≤ 10 | 
Cc1cccc(Cl)c1C(=O)N[C@H]1[C@@H]2CN(c3ccc(-c4cc(-c5cnn(C)c5)cn5ncc(C#N)c45)cn3)C[C@@H]21 [Example 23, 2-chloro-N-((1R,5S,6s)-3-(5-(3-cyano-6-(1-methyl-1H-pyrazol-4-yl)pyrazolo[1,5-a]pyridin-4-yl)pyridin-2-yl)-3-azabicyclo[3.1.0]hexan-6-yl)-6-methylbenzamide] | ≤ 10 | ≤ 10 | ≤ 10 | 
Cn1cc(-c2cc(-c3ccc(N4C[C@@H]5[C@@H](CNC(=O)C(O)c6ccccc6)[C@@H]5C4)nc3)c3c(C#N)cnn3c2)cn1 (stereo partly drawn) [Example 76, N-(((1R,5S,6s)-3-(5-(3-cyano-6-(1-methyl-1H-pyrazol-4-yl)pyrazolo[1,5-a]pyridin-4-yl)pyridin-2-yl)-3-azabicyclo[3.1.0]hexan-6-yl)methyl)-2-hydroxy-2-phenylacetamide] | 10 to 50 | ≤ 10 | ≤ 10 | 
Cn1cc(-c2cc(-c3cnc(N4C[C@@H]5CN(S(=O)(=O)c6c(F)cccc6Cl)C[C@@H]5C4)cn3)c3c(C#N)cnn3c2)cn1 [Example 182, 4-(5-((3aR,6aS)-5-((2-chloro-6-fluorophenyl)sulfonyl)hexahdropyrrolo[3,4-c]pyrrol-2(1H)-yl)pyrazin-2-yl)-6-(1-methyl-1H-pyrazol-4-yl)pyrazolo[1,5-a]pyridine-3-carbonitrile] | ≤ 10 | 10 to 50 | ≤ 10 | 
Cn1cc(-c2cc(-c3ccc(N4C[C@@H]5[C@H](CNC(=O)C(O)c6ccccc6)[C@@H]5C4)nc3)c3c(C#N)cnn3c2)cn1 (stereo partly drawn) [Example 79, N-(((1R,5S,6r)-3-(5-(3-cyano-6-(1-methyl-1H-pyrazol-4-yl)pyrazolo[1,5-a]pyridin-4-yl)pyridin-2-yl)-3-azabicyclo[3.1.0]hexan-6-yl)methyl)-2-hydroxy-2-phenylacetamide] | ≤ 10 | ≤ 10 | ≤ 10 | 
Cn1cc(-c2cc(-c3ccc(N4C[C@@H]5[C@@H](CNC(=O)c6cc(F)ccc6Cl)[C@@H]5C4)nc3)c3c(C#N)cnn3c2)cn1 [Example 80, 2-chloro-N-(((1R,5S,6s)-3-(5-(3-cyano-6-(1-methyl-1H-pyrazol-4-yl)pyrazolo[1,5-a]pyridin-4-yl)pyridin-2-yl)-3-azabicyclo[3.1.0]hexan-6-yl)methyl)-5-fluorobenzamide] | ≤ 10 | ≤ 10 | ≤ 10 | 
CCOc1cc(-c2ccc(N3C[C@@H]4C[C@@](C)(NC(=O)c5ncccc5C(F)(F)F)C[C@@H]4C3)nc2)c2c(C#N)cnn2c1 [Example 65, N-((3aR,5s,6aS)-2-(5-(3-cyano-6-ethoxypyrazolo[1,5-a]pyridin-4-yl)pyridin-2-yl)-5-methyloctahydrocyclopenta[c]pyrrol-5-yl)-3-(trifluoromethyl)picolinamide] | 10 to 50 | 50 to 100 | ≤ 10 | 
CC(C)(O)COc1cc(-c2ccc(N3C4CC5CC3CC(NS(C)(=O)=O)(C5)C4)nc2)c2c(C#N)cnn2c1 [Example 131, N-((1R,3S,5s,7s)-2-(5-(3-cyano-6-(2-hydroxy-2-methylpropoxy)pyrazolo[1,5-a]pyidin-4-yl)pyridin-2-yl)-2-azaadamantan-5-yl)methanesulfonamide] | 10 to 50 | 50 to 100 | ≤ 10 | 
Cn1cc(-c2cc(-c3ccc(N4C[C@@H]5[C@H](C4)[C@H]5NC(=O)c4ncc(F)cc4Cl)nc3)c3c(C#N)cnn3c2)cn1 [Example 22, 3-chloro-N-((1R,5S,6s)-3-(5-(3-cyano-6-(1-methyl-1H-pyrazol-4-yl)pyrazolo[1,5-a]pyridin-4-yl)pyridin-2-yl)-3-azabicyclo[3.1.0]hexan-6-yl)-5-fluoropicolinamide] | 50 to 100 | 10 to 50 | ≤ 10 | 
Cc1ccc(F)cc1C(=O)NC[C@@H]1[C@H]2CN(c3ccc(-c4cc(-c5cnn(C)c5)cn5ncc(C#N)c45)cn3)C[C@@H]12 [Example 81, N-(((1R,5S,6s)-3-(5-(3-cyano-6-(1-methyl-1H-pyrazol-4-yl)pyrazolo[1,5-a]pyridin-4-yl)pyridin-2-yl)-3-azabicyclo[3.1.0]hexan-6-yl)methyl)-5-fluoro-2-methylbenzamide] | ≤ 10 | 10 to 50 | ≤ 10 | 
CC(C)C(O)C(=O)NC[C@H]1[C@H]2CN(c3ccc(-c4cc(-c5cnn(C)c5)cn5ncc(C#N)c45)cn3)C[C@@H]12 (stereo partly drawn) [Example 77, N-(((1R,5S,6r)-3-(5-(3-cyano-6-(1-methyl-1H-pyrazol-4-yl)pyrazolo[1,5-a]pyridin-4-yl)pyridin-2-yl)-3-azabicyclo[3.1.0]hexan-6-yl)methyl)-2-hydroxy-3-methylbutanamide] | ≤ 10 | ≤ 10 | ≤ 10 | 
Cn1cc(-c2cc(-c3ccc(N4C[C@@H]5[C@H](C4)[C@@H]5NC(=O)Nc4ccccc4)nc3)c3c(C#N)cnn3c2)cn1 [Example 36, 1-((1R,5S,6r)-3-(5-(3-cyano-6-(1-methyl-1H-pyrazol-4-yl)pyrazolo[1,5-a]pyridin-4-yl)pyridin-2-yl)-3-azabicyclo[3.1.0]hexan-6-yl)-3-phenylurea] | 10 to 50 | ≤ 10 | ≤ 10 | 
Cc1cccc(Cl)c1C(=O)NC[C@@H]1[C@H]2CN(c3ccc(-c4cc(-c5cnn(C)c5)cn5ncc(C#N)c45)cn3)C[C@@H]12 [Example 84, 2-chloro-N-(((1R,5S,6s)-3-(5-(3-cyano-6-(1-methyl-1H-pyrazol-4-yl)pyrazolo[1,5-a]pyridin-4-yl)pyridin-2-yl)-3-azabicyclo[3.1.0]hexan-6-yl)methyl)-6-methylbenzamide] |  | ≤ 10 | ≤ 10 | ≤ 10
Cn1cc(-c2cc(-c3ccc(N4C[C@@H]5[C@H](C4)[C@@H]5NC(=O)c4ncccc4Cl)nc3)c3c(C#N)cnn3c2)cn1 [Example 30, 3-chloro-N-((1R,5S,6r)-3-(5-(3-cyano-6-(1-methyl-1H-pyrazol-4-yl)pyrazolo[1,5-a]pyridin-4-yl)pyridin-2-yl)-3-azabicyclo[3.1.0]hexan-6-yl)picolinamide] | 10 to 50 | 10 to 50 | ≤ 10 | 
CC(C)C(O)C(=O)N1C[C@@H]2CN(c3ccc(-c4cc(-c5cnn(C)c5)cn5ncc(C#N)c45)cn3)C[C@@H]2C1 (stereo partly drawn) [Example 2] | 10 to 50 | 10 to 50 | ≤ 10 | 
Cn1cc(-c2cc(-c3cnc(N4C[C@@H]5C[C@@](C)(NC(=O)c6ncccc6F)C[C@@H]5C4)cn3)c3c(C#N)cnn3c2)cn1 [Example 142, N-((3aR,5s,6aS)-2-(5-(3-cyano-6-(1-methyl-1H-pyrazol-4-yl)pyrazolo[1,5-a]pyridin-4-yl)pyrazin-2-yl)-5-methyloctahydrocyclopenta[c]pyrrol-5-yl)-3-fluoropicolinamide] | ≤ 10 | 10 to 50 | ≤ 10 | 
CC(C)(O)COc1cc(-c2ccc(N3C[C@@H]4[C@H](C3)[C@H]4NC(=O)[C@H](O)c3ccccc3)nc2)c2c(C#N)cnn2c1 [Example 40, (R)-N-((1R,5S,6s)-3-(5-(3-cyano-6-(2-hydroxy-2-methylpropoxy)pyrazolo[1,5-a]pyridin-4-yl)pyridin-2-yl)-3-azabicyclo[3.1.0]hexan-6-yl)-2-hydroxy-2-phenylacetamide] | 50 to 100 | > 100 | 10 to 50 | 
CCOc1cc(-c2ccc(N3C[C@@H]4C[C@@](C)(NC(=O)c5ncc(F)cc5Cl)C[C@@H]4C3)nc2)c2c(C#N)cnn2c1 [Example 64, 3-chloro-N-((3aR,5s,6aS)-2-(5-(3-cyano-6-ethoxypyrazolo[1,5-a]pyridin-4-yl)pyridin-2-yl)-5-methyloctahydrocyclopenta[c]pyrrol-5-yl)-5-fluoropicolinamide] | 50 to 100 | 10 to 50 | ≤ 10 | 
Cn1ccc(-c2cc(-c3cnc(N4C[C@@H]5C[C@@](C)(NC(=O)c6ncccc6F)C[C@@H]5C4)cn3)c3c(C#N)cnn3c2)n1 [Example 140, N-((3aR,5s,6aS)-2-(5-(3-cyano-6-(1-methyl-1H-pyrazol-3-yl)pyrazolo[1,5-a]pyridin-4-yl)pyrazin-2-yl)-5-methyloctahydrocyclopenta[c]pyrrol-5-yl)-3-fluoropicolinamide] | 10 to 50 | 10 to 50 | ≤ 10 | 
Cn1cc(-c2cc(-c3ccc(N4C[C@@H]5C[C@@](C)(NC(=O)c6c(F)cccc6Cl)C[C@@H]5C4)nc3)c3c(C#N)cnn3c2)cn1 [Example 57, 2-chloro-N-((3aR,5s,6aS)-2-(5-(3-cyano-6-(1-methyl-1H-pyrazol-4-yl)pyrazolo[1,5-a]pyridin-4-yl)pyridin-2-yl)-5-methyloctahydro-cyclopenta[c]pyrrol-5-yl)-6-fluorobenzamide] | ≤ 10 | > 100 | 10 to 50 | 
